Reference: ChEMBL document CHEMBL4507324 (2021)

Experiments:
Settings in all cases: Compound concentration 100.0 nM
[1] = molecular target: Serine/threonine-protein kinase/endoribonuclease IRE1 (Homo sapiens) (UniProt O75460)
[2] = molecular target: Serine/threonine-protein kinase DCLK2 (Homo sapiens) (UniProt Q8N568)
[3] = system: Receptor-type tyrosine-protein kinase FLT3 (Homo sapiens), P36888 [UNDEFINED MUTATION]
[4] = molecular target: Serine/threonine-protein kinase ULK2 (Homo sapiens) (UniProt Q8IYT8)
[5] = molecular target: Serine/threonine-protein kinase LATS1 (Homo sapiens) (UniProt O95835)
Chain of Serine/threonine-protein kinase LATS1 (Homo sapiens) (O95835 whole entry): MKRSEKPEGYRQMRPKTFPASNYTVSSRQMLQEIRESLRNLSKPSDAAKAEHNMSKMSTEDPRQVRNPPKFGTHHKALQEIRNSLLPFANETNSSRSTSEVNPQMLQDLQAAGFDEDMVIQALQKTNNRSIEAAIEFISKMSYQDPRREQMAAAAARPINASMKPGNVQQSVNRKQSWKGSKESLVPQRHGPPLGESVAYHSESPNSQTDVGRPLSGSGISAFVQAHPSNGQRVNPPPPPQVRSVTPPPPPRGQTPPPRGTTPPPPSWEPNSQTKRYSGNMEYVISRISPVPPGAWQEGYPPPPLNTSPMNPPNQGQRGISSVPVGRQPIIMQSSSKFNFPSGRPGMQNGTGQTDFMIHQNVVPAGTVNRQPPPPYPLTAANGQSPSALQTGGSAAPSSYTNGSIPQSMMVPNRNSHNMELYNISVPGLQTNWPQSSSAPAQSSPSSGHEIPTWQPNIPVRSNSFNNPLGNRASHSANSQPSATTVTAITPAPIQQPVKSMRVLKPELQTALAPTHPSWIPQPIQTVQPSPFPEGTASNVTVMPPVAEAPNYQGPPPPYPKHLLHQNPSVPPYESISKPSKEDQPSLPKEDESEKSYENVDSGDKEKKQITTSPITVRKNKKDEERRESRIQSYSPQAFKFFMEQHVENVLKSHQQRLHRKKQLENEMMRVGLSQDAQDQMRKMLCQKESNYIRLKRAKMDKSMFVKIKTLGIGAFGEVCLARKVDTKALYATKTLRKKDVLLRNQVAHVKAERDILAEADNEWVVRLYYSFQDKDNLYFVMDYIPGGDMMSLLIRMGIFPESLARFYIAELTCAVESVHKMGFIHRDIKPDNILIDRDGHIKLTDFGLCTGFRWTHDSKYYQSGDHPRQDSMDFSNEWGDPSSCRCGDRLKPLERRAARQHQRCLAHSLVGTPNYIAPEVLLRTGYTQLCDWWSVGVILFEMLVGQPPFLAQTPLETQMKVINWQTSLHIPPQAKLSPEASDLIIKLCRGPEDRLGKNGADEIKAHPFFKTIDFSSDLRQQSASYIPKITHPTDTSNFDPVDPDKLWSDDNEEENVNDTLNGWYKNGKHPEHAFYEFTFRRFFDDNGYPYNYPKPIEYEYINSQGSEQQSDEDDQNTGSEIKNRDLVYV

[6] = system: Hepatocyte growth factor receptor (Homo sapiens), P08581 [M1250T]
[7] = molecular target: Uncharacterized serine/threonine-protein kinase SBK3 (Homo sapiens) (UniProt P0C264)
Chain of Uncharacterized serine/threonine-protein kinase SBK3 (Homo sapiens) (P0C264 whole entry): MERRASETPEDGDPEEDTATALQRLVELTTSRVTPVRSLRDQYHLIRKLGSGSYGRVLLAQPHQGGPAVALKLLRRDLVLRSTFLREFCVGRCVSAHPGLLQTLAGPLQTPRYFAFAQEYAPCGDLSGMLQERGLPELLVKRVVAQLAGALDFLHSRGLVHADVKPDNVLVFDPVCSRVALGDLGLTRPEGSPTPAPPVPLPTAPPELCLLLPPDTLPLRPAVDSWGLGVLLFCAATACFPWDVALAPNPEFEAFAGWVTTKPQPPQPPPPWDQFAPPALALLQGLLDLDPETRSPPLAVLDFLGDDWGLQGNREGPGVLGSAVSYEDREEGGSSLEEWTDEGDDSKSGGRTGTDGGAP

[8] = molecular target: Tyrosine-protein kinase Fyn (Homo sapiens) (UniProt P06241)
[9] = molecular target: Activin receptor type-2A (Homo sapiens) (UniProt P27037)
Chain of Activin receptor type-2A (Homo sapiens) (P27037 whole entry): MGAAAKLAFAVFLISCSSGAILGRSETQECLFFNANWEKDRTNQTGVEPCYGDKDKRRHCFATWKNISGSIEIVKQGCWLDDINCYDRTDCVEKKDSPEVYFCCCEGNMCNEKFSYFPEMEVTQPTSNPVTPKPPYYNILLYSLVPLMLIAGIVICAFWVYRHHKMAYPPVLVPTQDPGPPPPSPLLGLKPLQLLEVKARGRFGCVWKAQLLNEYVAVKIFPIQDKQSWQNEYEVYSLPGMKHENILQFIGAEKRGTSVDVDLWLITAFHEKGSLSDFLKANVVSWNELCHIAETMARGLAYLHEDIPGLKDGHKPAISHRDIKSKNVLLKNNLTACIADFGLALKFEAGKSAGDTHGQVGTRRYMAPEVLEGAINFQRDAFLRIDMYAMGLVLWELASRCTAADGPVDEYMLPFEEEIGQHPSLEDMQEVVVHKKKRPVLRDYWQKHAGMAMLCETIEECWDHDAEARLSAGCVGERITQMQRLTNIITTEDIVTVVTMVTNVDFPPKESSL

[10] = molecular target: MAP kinase-interacting serine/threonine-protein kinase 1 (Homo sapiens) (UniProt Q9BUB5)
[11] = molecular target: Citron Rho-interacting kinase (Homo sapiens) (UniProt O14578)
[12] = molecular target: Myosin light chain kinase family member 4 (Homo sapiens) (UniProt Q86YV6)
[13] = molecular target: Mitogen-activated protein kinase kinase kinase 13 (Homo sapiens) (UniProt O43283)
[14] = molecular target: NUAK family SNF1-like kinase 1 (Homo sapiens) (UniProt O60285)
[15] = molecular target: Dual specificity mitogen-activated protein kinase kinase 2 (Homo sapiens) (UniProt P36507)
[16] = molecular target: Serine/threonine-protein kinase Nek9 (Homo sapiens) (UniProt Q8TD19)
[17] = molecular target: Serine/threonine-protein kinase MARK1 (Homo sapiens) (UniProt Q9P0L2)
[18] = molecular target: Tyrosine-protein kinase receptor Tie-1 (Homo sapiens) (UniProt P35590)
[19] = molecular target: Ribosomal protein S6 kinase alpha-3 (Homo sapiens) (UniProt P51812)
[20] = system: Epidermal growth factor receptor (Homo sapiens), P00533 [L858R]
[21] = molecular target: Serine/threonine-protein kinase RIO1 (Homo sapiens) (UniProt Q9BRS2)
[22] = molecular target: Insulin receptor-related protein (Homo sapiens) (UniProt P14616)
[23] = molecular target: Atypical kinase COQ8A, mitochondrial (Homo sapiens) (UniProt Q8NI60)
Chain of Atypical kinase COQ8A, mitochondrial (Homo sapiens) (Q8NI60 163-647 limits assumed): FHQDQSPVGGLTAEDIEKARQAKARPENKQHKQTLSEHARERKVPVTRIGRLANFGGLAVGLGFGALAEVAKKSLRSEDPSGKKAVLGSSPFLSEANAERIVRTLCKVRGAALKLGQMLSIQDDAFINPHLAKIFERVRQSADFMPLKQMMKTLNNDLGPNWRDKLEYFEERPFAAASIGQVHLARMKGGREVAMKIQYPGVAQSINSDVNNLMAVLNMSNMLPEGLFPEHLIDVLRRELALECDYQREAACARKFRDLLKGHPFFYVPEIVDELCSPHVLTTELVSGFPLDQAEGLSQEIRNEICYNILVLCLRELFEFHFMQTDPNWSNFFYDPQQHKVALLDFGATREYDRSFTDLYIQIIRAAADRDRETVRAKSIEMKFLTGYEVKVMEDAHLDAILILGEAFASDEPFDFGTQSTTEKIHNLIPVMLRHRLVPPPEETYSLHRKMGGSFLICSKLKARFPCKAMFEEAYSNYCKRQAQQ

[24] = molecular target: Ephrin type-A receptor 5 (Homo sapiens) (UniProt P54756)
[25] = molecular target: Mitogen-activated protein kinase 1 (Homo sapiens) (UniProt P28482)
[26] = molecular target: Casein kinase II subunit alpha' (Homo sapiens) (UniProt P19784)
[27] = molecular target: Focal adhesion kinase 1 (Homo sapiens) (UniProt Q05397)
[28] = molecular target: Mitogen-activated protein kinase kinase kinase kinase 3 (Homo sapiens) (UniProt Q8IVH8)
[29] = system: Epidermal growth factor receptor (Homo sapiens), P00533 [UNDEFINED MUTATION]
[30] = molecular target: Serine/threonine-protein kinase LATS2 (Homo sapiens) (UniProt Q9NRM7)
Chain of Serine/threonine-protein kinase LATS2 (Homo sapiens) (Q9NRM7 whole entry): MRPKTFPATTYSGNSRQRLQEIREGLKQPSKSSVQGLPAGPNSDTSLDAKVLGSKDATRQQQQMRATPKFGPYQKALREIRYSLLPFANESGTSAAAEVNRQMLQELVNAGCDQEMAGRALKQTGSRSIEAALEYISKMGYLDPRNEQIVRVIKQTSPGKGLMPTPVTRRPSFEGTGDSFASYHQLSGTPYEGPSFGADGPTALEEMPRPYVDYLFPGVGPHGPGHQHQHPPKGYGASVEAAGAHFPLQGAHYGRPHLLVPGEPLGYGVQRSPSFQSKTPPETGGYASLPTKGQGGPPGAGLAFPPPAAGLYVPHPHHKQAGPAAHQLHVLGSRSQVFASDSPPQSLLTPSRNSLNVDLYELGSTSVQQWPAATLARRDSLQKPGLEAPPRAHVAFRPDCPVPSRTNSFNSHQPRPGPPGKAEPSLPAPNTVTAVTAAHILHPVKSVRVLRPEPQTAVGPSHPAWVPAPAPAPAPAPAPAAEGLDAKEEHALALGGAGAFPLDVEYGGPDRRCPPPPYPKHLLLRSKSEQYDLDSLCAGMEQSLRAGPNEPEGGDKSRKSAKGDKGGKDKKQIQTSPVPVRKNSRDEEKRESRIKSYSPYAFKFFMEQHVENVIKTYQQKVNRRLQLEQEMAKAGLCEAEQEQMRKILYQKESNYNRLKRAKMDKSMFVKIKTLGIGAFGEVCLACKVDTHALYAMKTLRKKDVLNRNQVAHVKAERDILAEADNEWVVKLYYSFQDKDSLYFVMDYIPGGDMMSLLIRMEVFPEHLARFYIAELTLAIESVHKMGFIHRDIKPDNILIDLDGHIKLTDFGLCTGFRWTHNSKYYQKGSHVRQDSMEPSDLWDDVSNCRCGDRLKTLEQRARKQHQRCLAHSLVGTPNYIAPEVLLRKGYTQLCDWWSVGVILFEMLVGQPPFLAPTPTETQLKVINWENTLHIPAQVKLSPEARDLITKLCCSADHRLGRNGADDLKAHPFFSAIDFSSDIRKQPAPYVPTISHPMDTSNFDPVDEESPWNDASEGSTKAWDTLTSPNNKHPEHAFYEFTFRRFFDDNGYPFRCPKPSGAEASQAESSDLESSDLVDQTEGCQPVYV

[31] = molecular target: Cyclin-dependent kinase 18 (Homo sapiens) (UniProt Q07002)
[32] = molecular target: NUAK family SNF1-like kinase 2 (Homo sapiens) (UniProt Q9H093)
[33] = molecular target: Myosin-IIIb (Homo sapiens) (UniProt Q8WXR4)
[34] = molecular target: Ephrin type-B receptor 3 (Homo sapiens) (UniProt P54753)
[35] = molecular target: Serine/threonine-protein kinase 3 (Homo sapiens) (UniProt Q13188)
[36] = molecular target: Glycogen synthase kinase-3 alpha (Homo sapiens) (UniProt P49840)
[37] = molecular target: Dual specificity protein kinase CLK1 (Homo sapiens) (UniProt P49759)
[38] = molecular target: Tyrosine-protein kinase Lyn (Homo sapiens) (UniProt P07948)
Chain of Tyrosine-protein kinase Lyn (Homo sapiens) (P07948 2-512 limits assumed): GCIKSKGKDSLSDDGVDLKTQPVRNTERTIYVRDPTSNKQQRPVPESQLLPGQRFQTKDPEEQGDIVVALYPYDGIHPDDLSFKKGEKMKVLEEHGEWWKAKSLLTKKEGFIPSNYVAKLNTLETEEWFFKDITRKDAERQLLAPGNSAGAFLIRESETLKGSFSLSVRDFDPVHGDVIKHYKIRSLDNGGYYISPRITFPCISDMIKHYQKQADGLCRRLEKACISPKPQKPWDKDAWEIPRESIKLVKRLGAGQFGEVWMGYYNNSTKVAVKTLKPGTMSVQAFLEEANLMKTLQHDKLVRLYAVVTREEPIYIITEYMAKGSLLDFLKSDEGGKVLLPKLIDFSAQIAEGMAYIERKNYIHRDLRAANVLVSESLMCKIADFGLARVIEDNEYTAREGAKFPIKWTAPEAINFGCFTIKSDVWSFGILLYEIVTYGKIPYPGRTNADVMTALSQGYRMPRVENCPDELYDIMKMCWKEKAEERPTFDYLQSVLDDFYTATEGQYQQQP

[39] = system: Mast/stem cell growth factor receptor Kit (Homo sapiens), P10721 [L576P]
Chain of Mast/stem cell growth factor receptor Kit (Homo sapiens), P10721 [L576P] (P10721 whole entry L576P): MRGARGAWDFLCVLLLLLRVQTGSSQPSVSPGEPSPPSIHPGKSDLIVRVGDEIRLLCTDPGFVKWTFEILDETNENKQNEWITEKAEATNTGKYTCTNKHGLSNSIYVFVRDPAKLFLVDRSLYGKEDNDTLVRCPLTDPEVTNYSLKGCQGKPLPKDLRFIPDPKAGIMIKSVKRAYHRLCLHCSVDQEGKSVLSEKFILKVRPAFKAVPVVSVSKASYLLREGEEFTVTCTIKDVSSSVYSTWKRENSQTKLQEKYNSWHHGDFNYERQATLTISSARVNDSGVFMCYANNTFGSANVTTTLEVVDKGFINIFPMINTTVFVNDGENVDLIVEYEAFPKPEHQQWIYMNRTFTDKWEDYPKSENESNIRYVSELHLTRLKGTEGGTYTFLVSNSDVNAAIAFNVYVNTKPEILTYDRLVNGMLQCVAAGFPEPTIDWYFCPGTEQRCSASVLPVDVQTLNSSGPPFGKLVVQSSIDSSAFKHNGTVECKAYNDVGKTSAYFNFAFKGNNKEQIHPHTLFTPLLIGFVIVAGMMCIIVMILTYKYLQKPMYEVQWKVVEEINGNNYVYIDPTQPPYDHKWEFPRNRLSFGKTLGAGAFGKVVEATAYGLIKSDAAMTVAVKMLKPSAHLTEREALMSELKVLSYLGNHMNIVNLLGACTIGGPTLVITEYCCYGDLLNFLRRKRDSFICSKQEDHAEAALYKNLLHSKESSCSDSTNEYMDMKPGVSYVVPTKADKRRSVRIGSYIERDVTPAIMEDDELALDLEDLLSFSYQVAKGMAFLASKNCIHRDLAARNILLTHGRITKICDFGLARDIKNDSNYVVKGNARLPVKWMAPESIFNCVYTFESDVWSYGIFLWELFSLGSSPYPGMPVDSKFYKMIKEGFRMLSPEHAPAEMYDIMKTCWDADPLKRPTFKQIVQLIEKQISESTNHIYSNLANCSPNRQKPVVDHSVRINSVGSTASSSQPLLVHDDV

[40] = molecular target: Serine/threonine-protein kinase Nek5 (Homo sapiens) (UniProt Q6P3R8)
[41] = molecular target: Tyrosine-protein kinase ZAP-70 (Homo sapiens) (UniProt P43403)
[42] = system: Mast/stem cell growth factor receptor Kit (Homo sapiens), P10721 [A829P]
[43] = molecular target: Cyclin-dependent kinase 14 (Homo sapiens) (UniProt O94921)
[44] = system: Phosphatidylinositol 4,5-bisphosphate 3-kinase catalytic subunit alpha isoform (Homo sapiens), P42336 [E545K]
[45] = molecular target: Non-receptor tyrosine-protein kinase TYK2 (Homo sapiens) (UniProt P29597)

Measured: residual activity

CS(=O)(=O)N1CCCC(NC(=O)[C@H](CCC2CCCCC2)NC(=O)c2ccc(CNc3ncnc4c3nnn4-c3ccccc3)cc2)C1 (stereo not given in full) [SR-301]
inactive: [1] 100% | [2] 95% | [3] 80% | [4] 100% | [5] 100% | [6] 87% | [7] 100% | [8] 56% | [9] 68% | [10] 86% | [11] 98% | [12] 100% | [13] 100% | [14] 100% | [15] 90% | [16] 100% | [17] 74% | [18] 100% | [19] 100% | [20] 100% | [21] 54% | [22] 100% | [23] 97% | [24] 96% | [25] 90% | [26] 85% | [27] 100% | [28] 75% | [29] 100% | [30] 100% | [31] 100% | [32] 100% | [33] 100% | [34] 91% | [35] 95% | [36] 100% | [37] 87% | [38] 96% | [39] 78% | [40] 95% | [41] 100% | [42] 100% | [43] 100% | [44] 53% | [45] 100%

CS(=O)(=O)N1CCCC(NC(=O)[C@H](CCC2CCCCC2)NC(=O)c2ccc(CNC(=O)c3cnc4ccccn34)cc2)C1 (stereo not given in full) [SR-302]
inactive: [1] 100% | [2] 100% | [3] 100% | [4] 100% | [5] 98% | [6] 69% | [7] 66% | [8] 80% | [9] 100% | [10] 100% | [11] 100% | [12] 63% | [13] 74% | [14] 88% | [15] 100% | [16] 100% | [17] 100% | [18] 100% | [19] 100% | [20] 83% | [21] 73% | [22] 100% | [23] 100% | [24] 100% | [25] 100% | [26] 100% | [27] 92% | [28] 87% | [29] 66% | [30] 76% | [31] 100% | [32] 100% | [33] 89% | [34] 87% | [35] 88% | [36] 100% | [37] 86% | [38] 100% | [39] 55% | [40] 89% | [41] 100% | [42] 66% | [43] 100% | [44] 86% | [45] 86%
